Measured values published in US11702404B2, “GLP-1R modulating compounds” (priority 2019, dated 2023).

What was measured:
GLP-1R = GLP-1R (Homo sapiens, UniProt P43220); assay: GLP-1R activation: cAMP increase in CHO cells stably expressing GLP-1R; assay type: cell-based; settings: cAMP increase, CHO cells stably expressing GLP-1R, 10 point dose response, 30 minutes incubation; read-out: EC50
[1] = Microsomal stability, human liver microsomes (predicted hepatic clearance); settings: predicted from in vitro microsomal stability data

GLP-1R, sequence (P43220 24-463): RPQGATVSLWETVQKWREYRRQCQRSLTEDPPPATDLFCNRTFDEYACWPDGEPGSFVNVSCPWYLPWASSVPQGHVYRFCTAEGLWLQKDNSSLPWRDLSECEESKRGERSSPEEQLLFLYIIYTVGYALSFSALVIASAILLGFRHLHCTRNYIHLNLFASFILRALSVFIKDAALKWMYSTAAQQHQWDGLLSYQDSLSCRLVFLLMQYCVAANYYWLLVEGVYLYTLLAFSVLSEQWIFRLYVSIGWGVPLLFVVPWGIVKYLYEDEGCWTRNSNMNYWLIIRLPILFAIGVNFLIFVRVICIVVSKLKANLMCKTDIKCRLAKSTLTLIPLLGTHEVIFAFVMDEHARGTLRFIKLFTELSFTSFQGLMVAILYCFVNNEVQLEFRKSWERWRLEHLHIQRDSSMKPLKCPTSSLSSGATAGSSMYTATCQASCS

Compound	EC50 (GLP-1R) [nM]	Predicted Hepatic Clearance (Pred. Cl.) [1] [mL/min/kg]
COCC1(Cn2c(Cc3cc(F)c(-c4cccc(OCc5ccc(C#N)cc5F)n4)cc3F)nc3ccc(C(=O)O)cc32)CC1 [Example 638]	2.24	1.83
CN1CCO[C@H](Cn2c(Cc3cc(F)c(-c4cccc(OCc5ccc(C#N)cc5F)n4)cc3F)nc3ccc(C(=O)O)cc32)C1 [Example 639]	78.2	5
N#Cc1ccc(COc2cccc(-c3cc(F)c(Cc4nc5ccc(C(=O)O)cc5n4CC4CCCCO4)cc3F)n2)c(F)c1 (stereo not drawn) [Example 640]	16.6	8.5
N#Cc1ccc(COc2cccc(-c3cc(F)c(Cc4nc5ccc(C(=O)O)cc5n4C[C@H]4COCCO4)cc3F)n2)c(F)c1 [Example 641]	65.9	2.83
N#Cc1ccc(COc2cccc(-c3cc(F)c(Cc4nc5ccc(C(=O)O)cc5n4C[C@@H]4COCCO4)cc3F)n2)c(F)c1 [Example 642]	5.14	2.67
N#Cc1ccc(COc2nccc(-c3cc(F)c(Cc4nc5ccc(C(=O)O)cc5n4CC45CC(CO4)C5)cc3F)n2)c(F)c1 [Example 645]	2.05	9.17
O=C(O)c1cc(F)c2nc(Cc3ccc(-c4cccc(OCc5ccc(C(F)F)cc5F)n4)cc3F)n(CC34CC(CO3)C4)c2c1 [Example 646]	1.78	5.83
O=C(O)c1ccc2nc(Cc3ccc(-c4cccc(OCc5ccc(C(F)F)cc5F)n4)cc3F)n(CC34CC(CO3)C4)c2c1 [Example 647]	3.02	3.5
N#Cc1ccc(COc2nccc(-c3ccc(Cc4nc5c(F)cc(C(=O)O)cc5n4CC45CC(CO4)C5)cc3F)n2)c(F)c1 [Example 650]	19.6	11
CN1CCO[C@@H](Cn2c(Cc3cc(F)c(-c4cccc(OCc5ccc(C#N)cc5F)n4)cc3F)nc3ccc(C(=O)O)cc32)C1 [Example 651]	2790	3.33
COCC1(Cn2c(Cc3cc(F)c(-c4cccc(OCc5ccc(C#N)cc5F)n4)cc3F)nc3ccc(C(=O)O)cc32)CCCO1 (stereo not drawn) [Example 652]	8.79	8
N#Cc1ccc(COc2cccc(-c3cc(F)c(Cc4nc5ccc(C(=O)O)cc5n4CC4CC5(COC5)C4)cc3F)n2)c(F)c1 [Example 653]	17	2.67
COCCn1c(Cc2c(F)cc(-c3cccc(OCc4ccc(Cl)nc4)n3)cc2F)nc2ccc(C(=O)O)cc21 [Example 654]	24.9	3.5
COCCn1c(Cc2cc(F)c(-c3cccc(OCc4ccc(C#N)nc4)n3)cc2F)nc2c(F)cc(C(=O)O)cc21 [Example 657]	5.88	4
COCCn1c(Cc2cc(F)c(-c3cccc(OCc4cc(Cl)ccc4F)n3)cc2F)nc2ccc(C(=O)O)cc21 [Example 660]	50.5	4.17
COCCn1c(Cc2cc(F)c(-c3nc(OCc4ccc(C(F)F)cc4F)ccc3F)cc2F)nc2ccc(C(=O)O)cc21 [Example 661]	1.95	4
O=C(O)c1ccc2nc(Cc3cc(F)c(-c4ccnc(OCc5ccc(C(F)F)cc5F)n4)cc3F)n(CC34CC(CO3)C4)c2c1 [Example 671]	1.76	1.83
COCCn1c(Cc2cc(F)c(-c3ccc(F)c(OCc4ccc(C#N)cc4F)n3)cc2C)nc2ccc(C(=O)O)cc21 [Example 673]	3.54	4.5
COCCn1c(Cc2cc(F)c(-c3cccc(OCc4ccc(C#N)cc4F)n3)cc2C)nc2ccc(C(=O)O)cc21 [Example 674]	2.73	6
COCCn1c(Cc2ccc(-c3cccc(OCc4ccc(C#N)cc4F)n3)c(F)c2)nc2c(F)cc(C(=O)O)cc21 [Example 681]	5.64	3.33
N#Cc1ccc(COc2cccc(-c3cc(=O)n(Cc4nc5ccc(C(=O)O)cc5n4CC45CC(CO4)C5)cc3F)n2)c(F)c1 [Example 683]	2.41	6.5

Molecules with a lower EC50 (GLP-1R), results first:

EC50 (GLP-1R) [nM]	Predicted Hepatic Clearance (Pred. Cl.) [1] [mL/min/kg]	Compound
0.46	1.83	COCCn1c(Cc2cc(F)c(-c3cccc(OCc4ccc(C(F)F)cc4F)n3)cc2F)nc2c(F)cc(C(=O)O)cc21 [Example 635]
1.27	6.5	COC1(Cn2c(Cc3cc(F)c(-c4cccc(OCc5ccc(C#N)cc5F)n4)cc3F)nc3ccc(C(=O)O)cc32)COC1 [Example 636]
0.03	5	O=C(O)c1cc(F)c2nc(Cc3cc(F)c(-c4cccc(OCc5ccc(C(F)F)cc5F)n4)cc3F)n(C[C@@H]3CCO3)c2c1 [Example 643]
0.69	8	N#Cc1ccc(COc2nccc(-c3cc(F)c(Cc4nc5c(F)cc(C(=O)O)cc5n4CC45CC(CO4)C5)cc3F)n2)c(F)c1 [Example 644]
0.09	2.33	O=C(O)c1cc(F)c2nc(Cc3ccc(-c4cccc(OCc5ccc(C(F)F)cc5F)n4)cc3F)n(C[C@@H]3CCO3)c2c1 [Example 648]
0.2	5.83	N#Cc1ccc(COc2cccc(-c3cc(F)c(Cc4nc5c(F)cc(C(=O)O)cc5n4CC45CC(CO4)C5)cc3F)n2)c(F)c1 [Example 649]
1.26	5.33	O=C(O)c1ccc2nc(Cc3ccc(-c4cccc(OCc5ccc(C(F)(F)F)nc5)n4)c(F)c3)n(C[C@@H]3CCO3)c2c1 [Example 655]
1.52	4.67	N#Cc1ccc(COc2cccc(-c3ccc(Cc4nc5ccc(C(=O)O)cc5n4C[C@@H]4CCO4)cc3F)n2)cn1 [Example 656]
0.11	3	O=C(O)c1cc(F)c2nc(Cc3cc(F)c(-c4cccc(OCc5ccc(Cl)nc5)n4)cc3F)n(C[C@@H]3CCO3)c2c1 [Example 658]
0.17	3.5	N#Cc1ccc(COc2cccc(-c3cc(F)c(Cc4nc5c(F)cc(C(=O)O)cc5n4C[C@@H]4CCO4)cc3F)n2)cn1 [Example 659]
0.39	3.67	COCCn1c(Cc2cc(F)c(-c3cccc(OCc4ccc(Cl)cc4F)n3)cc2F)nc2c(F)cc(C(=O)O)cc21 [Example 662]
0.51	1.83	O=C(O)c1ccc2nc(Cc3cc(F)c(-c4cccc(OCc5ccc(Cl)cc5F)n4)cc3F)n(C[C@@H]3CCO3)c2c1 [Example 663]
0.67	4.67	COCCn1c(Cc2cc(F)c(-c3nc(OCc4ccc(C(F)F)cc4F)ccc3F)cc2F)nc2c(F)cc(C(=O)O)cc21 [Example 664]
0.51	1.83	O=C(O)c1ccc2nc(Cc3cc(F)c(-c4cccc(OCc5ccc(C(F)(F)F)cc5F)n4)cc3F)n(C[C@@H]3CCO3)c2c1 [Example 665]
0.51	3.33	N#Cc1ccc(COc2nc(-c3ccc(Cc4nc5c(F)cc(C(=O)O)cc5n4C[C@@H]4CCO4)cc3F)ncc2F)c(F)c1 [Example 666]
0.1	6	O=C(O)c1ccc2nc(Cc3ccc(-c4cccc(OCc5ccc(C(F)(F)F)cc5F)n4)cc3F)n(C[C@@H]3CCO3)c2c1 [Example 667]
0.56	3.67	N#Cc1cc(F)c(COc2cccc(-c3ccc(Cc4nc5ccc(C(=O)O)cc5n4C[C@@H]4CCO4)c(F)c3)n2)cc1F [Example 668]
0.28	1.83	O=C(O)c1cc(F)c2nc(Cc3cc(F)c(-c4cccc(OCc5ccc(C(F)F)cc5F)n4)cc3F)n(CC34CC(CO3)C4)c2c1 [Example 669]
0.51	3.17	O=C(O)c1ccc2nc(Cc3cc(F)c(-c4cccc(OCc5ccc(C(F)F)cc5F)n4)cc3F)n(CC34CC(CO3)C4)c2c1 [Example 670]
0.58	1.83	COCCn1c(Cc2cc(F)c(-c3ccnc(OCc4ccc(C(F)F)cc4F)n3)cc2F)nc2c(F)cc(C(=O)O)cc21 [Example 672]
0.16	2.83	N#Cc1ccc(COc2nc(-c3ccc(Cc4nc5c(F)cc(C(=O)O)cc5n4C[C@@H]4CCO4)cc3)ccc2F)c(F)c1 [Example 675]
0.52	2.33	N#Cc1cc(F)c(COc2nc(-c3ccc(Cc4nc5ccc(C(=O)O)cc5n4C[C@@H]4CCO4)cc3F)ccc2F)cc1F [Example 676]
0.06	1.83	N#Cc1cc(F)c(COc2nccc(-c3cc(F)c(Cc4nc5c(F)cc(C(=O)O)cc5n4C[C@@H]4CCO4)cc3F)n2)cc1F [Example 677]
0.88	4.17	CCn1cnnc1Cn1c(Cc2cc(F)c(-c3cccc(OCc4ccc(C(F)F)cc4F)n3)cc2F)nc2ccc(C(=O)O)cc21 [Example 678]
0.06	5	O=C(O)c1ccc2nc(Cc3c(F)cc(-c4cccc(OCc5ccc(C(F)F)cc5F)n4)cc3F)n(C[C@@H]3CCO3)c2c1 [Example 679]
0.11	5.5	N#Cc1cc(F)c(COc2cccc(-c3cc(F)c(Cc4nc5ccc(C(=O)O)cc5n4C[C@@H]4CCO4)c(F)c3)n2)cc1F [Example 680]
0.59	2.5	N#Cc1ccc(COc2cccc(-c3cnc(Cc4nc5ccc(C(=O)O)cc5n4C[C@@H]4CCO4)c(F)c3)n2)c(F)c1 [Example 682]
